Data: publication PMC2668075 (PLoS ONE, 2009)
Peptide text beside a SMILES is read from it. * marks the point of attachment. AMC = Cc1cc(=O)oc2cc(N*)ccc12

Target: T1, HcDppIVA (Histoplasma ohiense, UniProt A0ACF1AGW9)
T1 construct: gene DPP4
Conditions: pH and temperature series (optimum pH 8, 42 °C); 1 h

Cc1cc(=O)oc2cc(NC(=O)[C@@H]3CCCN3C(=O)CN)ccc12 [Gly-pro-AMC] (H-Gly-Pro-{AMC})
fluorescent AMC release assay: We measured DppIV activity of the purified preparation towards Gly-pro-AMC
